“Also recorded” adds a separate entry of the source.
Experiments:
[1] = system: BBS10^−/− mice on high-fat/high-glucose diet; assay: Escalating setmelanotide dosing study over 10 days, plasma leptin by ELISA; format: in vivo; conditions: obese BBS10^−/− mice on HF/HG diet; escalating doses 0.05-1.25 mg/kg over 10 days; disproportionate from body weight loss
Procedure: (§1) In order to assess the effect of setmelanotide on plasma leptin levels disproportionate from body weight loss, BBS10^−/− and wild type mice were fed a high fat/high glucose diet from weaning and body weight assessed on a weekly basis. At four months of age, mice were transferred to metabolic cages and acclimated for 3 days. An escalating setmelanotide dosing study over 10-days was conducted in accordance with regimen shown below in Table 1:
(§2) At the completion of the study, mice were sacrificed and blood and kidney collected for analysis of circulating leptin concentration and IL-23 mRNA expression, respectively. Plasma leptin concentrations were determined using a leptin ELISA kit (Catalog: #: EZML-82K, Millipore, Billerica, Massachusetts, USA). For analysis of renal IL-23 expression messenger RNA was extracted from tissue samples using TRIzol® reagent (#15596-018, Life Technologies, USA). […] The real-time quantitative PCR reaction was performed in a C1000™ thermocycler (CFX96, Real-Time System, BioRad, USA) using SYBR® Green. […] Results were analyzed with the CFX Manager™ software (BioRad, USA). Gene expression quantification was assessed by reporting measured levels relative to Gapdh expression in each separate sample.

[2] = system: BBS10^−/− mice on high-fat/high-glucose diet; assay: Escalating setmelanotide dosing study over 10 days, renal IL-23 mRNA expression by real-time quantitative PCR; format: in vivo; conditions: obese BBS10^−/− mice on HF/HG diet; escalating doses 0.05-1.25 mg/kg over 10 days; relative to Gapdh
Procedure: as §1, §2

BBS10^−/− mice = assay: Setmelanotide daily for one week, body weight and plasma and urine biomarker levels; format: in vivo
Procedure: In order to assess the effect of setmelanotide on body weight and the levels of certain biomarkers, BBS10^−/− mice were administered setmelanotide (1.25 mg/kg) daily for one week. […] However, setmelanotide treatment did result in an increase in urine calcium levels as well as an increase in urine creatine levels (FIG. 4).
Additional studies in these mice entailed measurement of blood plasma levels of the biomarkers leptin and adiponectin after treatment with setmelanotide (1.25 mg/kg). […] Further, the leptin: adiponectin ration was decreased in setmelanotide treated mice.

[3] = clinical trials (Chen et al. J. Clin. Endocrinol. Metab. 2015); cited from earlier work

With CC(=O)N[C@@H](CCCNC(=N)N)C(=O)N[C@H]1CSSC[C@@H](C(N)=O)NC(=O)[C@H](Cc2c[nH]c3ccccc23)NC(=O)[C@H](CCCNC(=N)N)NC(=O)[C@@H](Cc2ccccc2)NC(=O)[C@H](Cc2cnc[nH]2)NC(=O)[C@@H](C)NC1=O [setmelanotide, Ac-Arg-c (Cys-D-Ala-His-D-Phe-Arg-Trp-Cys)-NH2] as the molecule, how does the plasma leptin levels [1] read?
The plasma leptin levels was “lowers; also recorded: decrease”.

And the “renal IL-23 mRNA expression” value [2]?
The value was “lowers; also recorded: normalization”.

And the body weight (BBS10^−/− mice; 1.25 mg/kg daily for one week)?
The body weight was “Lowered”.

What about the urine calcium levels (BBS10^−/− mice; 1.25 mg/kg daily for one week) of the same molecule?
Its urine calcium levels is “increase”.

And the urine creatine levels (BBS10^−/− mice; 1.25 mg/kg daily for one week, FIG. 4)?
Its urine creatine levels is “increase”.

What about the “blood plasma levels of leptin” value (BBS10^−/− mice; 1.25 mg/kg, effect not seen in vehicle and pair-fed mice, FIG. 5A) of the same molecule?
The value was “decreasing levels”.

And the “blood plasma levels of adiponectin” value (BBS10^−/− mice; 1.25 mg/kg, effect not seen in vehicle and pair-fed mice, FIG. 5B)?
The value was “increased levels”.

And the “leptin: adiponectin ration” value (BBS10^−/− mice; 1.25 mg/kg, effect not seen in vehicle and pair-fed mice, FIG. 5C)?
The value was “decreased”.

And the “effect on blood pressure” value [3]?
The value was “has not been shown to adversely affect blood pressure”.

— US20250082717A1, “COMPOSITIONS FOR TREATING KIDNEY DISEASE” (RHYTHM PHARMACEUTICALS, INC., priority 2018, published 2025)
